Data reported in article PMC7413254 (Nature Communications, 2020).
Positions count from the first letter of the chain named. Where no end group is shown, it is not given here.

Legend:
[1] = biological target: T1, PfNT1 (Plasmodium falciparum, UniProt Q8IDM6); test: [3H]VF-6 transport (efflux) from injected Xenopus oocytes; type: cell-based; conditions: trans-inhibition, treatment 45 mM
T1 construct: expressed in transfected cells; host or cells: Xenopus laevis oocytes (stage V-VI), cRNA-injected

[2] = test system: non-expressing oocytes; test: as above; type: cell-based, Xenopus laevis; conditions: trans-inhibition, treatment 45 mM
Description: The characterisation of [^3H]VF-6 transport via 23 different field and laboratory-derived isoforms of PfCRT was undertaken with oocytes two days post-cRNA-injection (Figs. 3a–j, 4; Supplementary Fig. 2). The oocytes were injected with 25 nL of ND96 buffer (pH 5.5) supplemented with [^3H]VF-6 and unlabelled VF-6 to achieve estimated intracellular concentrations of 1.4 and 200 μM, respectively. Ten oocytes that had resealed at the injection site were transferred to a 5 mL polystyrene round bottom tube (In Vitro Technologies) and washed with 3.5 mL of ND96 buffer before being transferred to separate wells of a white 96-well plate (PerkinElmer). This treatment served to establish the amount of radioactivity within the oocytes immediately prior to the commencement of the transport assay. Another 10 resealed oocytes were transferred to a 5 mL tube and washed with 3.5 mL of ND96 buffer. The assay commenced with the addition of 100 μL of ND96 buffer and the oocytes were incubated at 27.5 °C for 1.5 h (unless specified otherwise; Fig. 3b). The assay was terminated by removing the reaction buffer with a pipette and washing the oocytes twice with 3.5 mL of ice-cold ND96 buffer. Each oocyte was transferred to a separate well of a white 96-well plate. The oocytes were lysed by the addition of 20 μL of 10% (w/v) SDS and overnight incubation at room temperature. The lysed oocyte was then combined with 150 μL of MicroScint-40 microscintillant (PerkinElmer), the plate covered with a TopSeal-A (PerkinElmer), and the radioactivity measured with a MicroBeta^2 microplate liquid scintillation analyser (PerkinElmer). VF-6 transport was calculated by subtracting the amount of radioactivity (measured in counts per minute) present within the oocytes at the end of the incubation from that measured in the oocytes sampled immediately before the commencement of the assay. The pH-dependence of transport (Fig. 3c) was determined by injecting the oocytes with [^3H]VF-6 suspended in 25 nL ND96 buffer adjusted to pH 5.0, 5.5, 6.0 or 7.0, which corresponded to the injection of 2.5–250 fmol of H^+. The dependence of [^3H]VF-6 transport on Na^+ or Cl^− was examined by injecting the oocytes with [^3H]VF-6 suspended in the control ND96 buffer (pH 5.5) or a version of this buffer that lacked either Na^+ or Cl^− (Supplementary Fig. 2). Na^+ was replaced with 96 mM of KCl and Cl^− was replaced with gluconate salts of Na^+ (NaC6H11O7; 96 mM), K^+ (KC6H11O7; 2 mM), Mg^2+ (MgC12H22O14; 1 mM) and Ca^2+ (CaC12H22O14; 1.8 mM). The dependence of peptide transport on Ca^2+ was determined by injecting the oocytes with [^3H]VF-6 suspended in ND96 buffers that contained different concentrations of Ca^2+ (0–5 mM; Supplementary Fig. 2). […] The dependence of PfCRT-mediated transport on the membrane potential was examined by using (1) Na^+ ionophore III in conjunction with the Na^+ gradients listed in Supplementary Data 7 and (2) Cl^− ionophore III in conjunction with the Cl^− gradients listed in Supplementary Data 7 to clamp the membrane potential of the oocyte from −80 to +80 mV. […] The kinetic parameters for VF-6 transport via different isoforms of PfCRT (Figs. 3e and 4a) were determined in SigmaPlot Windows Version 11.0 by a least-squares fit of the Michaelis–Menten equation to the data.
A subset of assays measured the ability of solutes known to interact with PfCRT to either cis-inhibit, trans-inhibit or trans-stimulate [^3H]VF-6 transport. These experiments involved adding these solutes to either the cis- or trans-side of the membrane relative to [^3H]VF-6. […] At least five independent experiments were performed (on different days and using oocytes from different frogs), and within each experiment measurements were made from ten oocytes per treatment.

[3] = biological target: T2, PfCRT^Dd2 in C4^Dd2 parasites (Plasmodium falciparum, UniProt Q8IBZ9, A220S/I356T/K76T/M74I/N326S/N75E/Q271E/R371I); test: P. falciparum H+-efflux assay (rate of DV alkalinisation after concanamycin A); type: cell-based; conditions: C4Dd2; for Effect on rate of DV alkalinisation / H+ leak (in words): test solute 10 μM
T2 construct: PfCRT also functions as a peptide transporter within its native environment of the DV membrane; expressed in transfected cells; host or cells: P. falciparum pfcrt transfectant line C4^Dd2 (saponin-isolated trophozoites)
T2 sequence (Q8IBZ9 1-424 M74I/N75E/K76T/A220S/Q271E/N326S/I356T/R371I): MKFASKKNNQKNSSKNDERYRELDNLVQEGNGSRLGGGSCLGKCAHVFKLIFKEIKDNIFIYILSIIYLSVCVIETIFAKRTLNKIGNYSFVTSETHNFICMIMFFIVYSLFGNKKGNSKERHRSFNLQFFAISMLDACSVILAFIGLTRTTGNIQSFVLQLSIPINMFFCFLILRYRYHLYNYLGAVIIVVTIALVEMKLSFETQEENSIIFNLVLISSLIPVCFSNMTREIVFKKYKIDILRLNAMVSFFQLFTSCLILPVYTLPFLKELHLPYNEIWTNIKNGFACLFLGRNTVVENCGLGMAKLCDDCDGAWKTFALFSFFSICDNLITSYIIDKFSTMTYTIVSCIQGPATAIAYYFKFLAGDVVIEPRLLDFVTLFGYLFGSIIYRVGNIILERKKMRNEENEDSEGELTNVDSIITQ

[4] = biological target: T3, PfCRT^3D7 in C2^GC03 parasites (Plasmodium falciparum, UniProt Q8IBZ9); test: as above; type: cell-based; conditions: C2GC03; for Effect on rate of DV alkalinisation / H+ leak (in words): test solute 10 μM
T3 construct: PfCRT also functions as a peptide transporter within its native environment of the DV membrane; expressed in transfected cells; host or cells: P. falciparum pfcrt transfectant line C2^GC03 (saponin-isolated trophozoites)
T3 sequence (Q8IBZ9 1-424): T2 sequence (Q8IBZ9 1-424 M74I/N75E/K76T/A220S/Q271E/N326S/I356T/R371I) with I74M, E75N, T76K, S220A, E271Q, S326N, T356I, I371R

T1 sequence (Q8IDM6 whole entry): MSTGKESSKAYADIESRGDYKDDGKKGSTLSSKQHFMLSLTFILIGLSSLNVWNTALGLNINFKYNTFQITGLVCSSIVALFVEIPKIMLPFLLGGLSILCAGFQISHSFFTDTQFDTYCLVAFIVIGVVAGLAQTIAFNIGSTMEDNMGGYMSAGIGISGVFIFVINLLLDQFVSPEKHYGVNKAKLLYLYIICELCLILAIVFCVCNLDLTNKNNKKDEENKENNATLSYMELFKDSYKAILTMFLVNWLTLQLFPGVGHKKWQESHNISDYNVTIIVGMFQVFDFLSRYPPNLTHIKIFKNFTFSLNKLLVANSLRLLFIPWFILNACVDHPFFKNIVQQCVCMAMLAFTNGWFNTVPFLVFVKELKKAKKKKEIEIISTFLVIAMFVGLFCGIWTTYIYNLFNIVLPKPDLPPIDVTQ

| Molecule | [3H]VF-6 transport, PfNT1 (% PfCRT3D7 control) ([1]; Experiment 1) | [3H]VF-6 transport, PfNT1 (% PfCRT3D7 control) ([1]; Experiment 2) | [3H]VF-6 transport, PfNT1 (% PfCRT3D7 control) ([1]; Experiment 3) | [3H]VF-6 transport, PfNT1 (% PfCRT3D7 control) ([1]; Experiment 4) | [3H]VF-6 transport, PfNT1 (% PfCRT3D7 control) ([1]; Experiment 5) | [3H]VF-6 transport, non-expressing oocytes (% PfCRT3D7 control) ([2]; Experiment 1) | [3H]VF-6 transport, non-expressing oocytes (% PfCRT3D7 control) ([2]; Experiment 2) | [3H]VF-6 transport, non-expressing oocytes (% PfCRT3D7 control) ([2]; Experiment 3) | [3H]VF-6 transport, non-expressing oocytes (% PfCRT3D7 control) ([2]; Experiment 4) | [3H]VF-6 transport, non-expressing oocytes (% PfCRT3D7 control) ([2]; Experiment 5) | Effect on rate of DV alkalinisation / H+ leak (in words) [3] | Effect on rate of DV alkalinisation / H+ leak (in words) [4] | Maximum rate of peptide mimic-induced DV alkalinization ([3]; mean ± SEM, n = 5, SEM) [fluorescence ratio/s] | Maximum rate of peptide mimic-induced DV alkalinization ([4]; mean ± SEM, n = 5, SEM) [fluorescence ratio/s] |
| --- | --- | --- | --- | --- | --- | --- | --- | --- | --- | --- | --- | --- | --- | --- |
| PVNF [VF-6-derived peptide] | 4.26 | 4.27 | 4.41 | 3.17 | 4.26 | 4.26 | 4.58 | 4.28 | 4.2 | 3.58 |  |  |  |  |
| VDPVNF [VF-6] | 3.58 | 3.28 | 3.22 | 4.26 | 4.11 |  |  |  |  |  |  |  |  |  |
| N[C@@H](Cc1c[nH]cn1)C(=O)O [L-histidine] |  |  |  |  |  |  |  |  |  |  | without effect | without effect |  |  |
| CC(C)(C)NC(=O)[C@@H]1C[C@@H]2CCCC[C@@H]2CN1C[C@@H](O)[C@H](Cc1ccccc1)NC(=O)[C@H](CC(N)=O)NC(=O)c1ccc2ccccc2n1 [Saquinavir, saquinavir, reference compound] |  |  |  |  |  |  |  |  |  |  | increased the rate of DV alkalinisation | increased the rate of DV alkalinisation | 0.011 ±0.003 | 0.039 ±0.002 |
| CCN(CC)CCCC(C)Nc1ccnc2cc(Cl)ccc12 (centres unmarked) [CQ, chloroquine, reference compound] |  |  |  |  |  |  |  |  |  |  | increase | decrease slightly |  |  |
| DPVN [VF-6-derived peptide] | 3.26 | 3.27 | 3.74 | 3.42 | 3.57 | 3.68 | 3.18 | 3.95 | 3.69 | 3.36 |  |  |  |  |
| VDPVN [VF-6-derived peptide] | 3.27 | 3.32 | 3.39 | 3.68 | 3.32 | 3.62 | 3.95 | 3.26 | 3.58 | 3.77 |  |  |  |  |
| DPVNF [VF-6-derived peptide] | 3.26 | 3.36 | 3.25 | 3.79 | 3.25 | 3.25 | 3.26 | 3.78 | 3.25 | 3.35 |  |  |  |  |
